Data: patent US9018260B2, “Indanesulfamide derivatives” (Eisai R&D Management Co., Ltd., priority 2012, dated 2015)

Test system: corneal kindled male C57Bl/6 mice
Test: Mouse corneal kindling model
Assay type: in vivo
Settings: Racine's scale
From the text: Male C57Bl/6 mice were stimulated twice daily for 10 days. The electric-stimulations with current intensities of 4.0 mA and duration of 3 s (pulse frequency 50 Hz) were applied via corneally placed saline-soaked copper electrodes.
Seizure severity was ranked according to a modified scoring system of the Racine's scale (Clin. Neurophysiol. 1972:32:281-294): Score 1, mild facial clonus and eye blinking; 2, severe facial clonus, head nodding, chewing; 3, unilateral or alternating forelimb clonus; 4, bilateral forelimb clonus with rearing; 5, bilateral forelimb clonus with rearing and falling; 6, tonic fore- and/or hindlimb extension. The fully kindled animals with the severity score 4 or more were used for evaluation.
Test compounds were dissolved in the vehicle (0.45% methyl cellulose/4.5% cremophor/10% DMSO), then orally (p.o.) or intraperitoneally (i.p.) administered to mice. The vehicle was orally administered as controls.
Electric stimulation was applied at 1 hour after p.o. or 20 minutes after i.p administration. Stimulation parameters were the same as during the kindling process. After electric stimulation, seizure severity was recorded for 30 seconds according to the Racine's scale.
Four to ten animals were used for calculation of average seizure severity score at each dose.

[1] = dose 10 mg/kg, p.o., stimulation 1 hour after administration
[2] = dose 25 mg/kg, p.o., stimulation 1 hour after administration
[3] = dose 25 mg/kg, p.o., stimulation 1 hour after administration, 25 mg/kg
[4] = dose 50 mg/kg, p.o., stimulation 1 hour after administration
[5] = dose 10 mg/kg, p.o., stimulation 1 hour after administration, 10 mg/kg
[6] = dose 10 mg/kg, i.p., stimulation 20 minutes after administration
[7] = dose 25 mg/kg, i.p., stimulation 20 minutes after administration

## Cc1cc(F)cc2c1C(NS(N)(=O)=O)CC2 (racemic) [Example 26, (±)-N-(5-fluoro-7-methyl-2,3-dihydro-1H-inden-1-yl)sulfamide]
[1]
  Seizure severity score (Average): 4.25
[2]
  Seizure severity score (Average): 0

## Cc1cc(Cl)cc2c1C(NS(N)(=O)=O)CC2 (racemic) [Example 30, (±)-N-(5-chloro-7-methyl-2,3-dihydro-1H-inden-1-yl)sulfamide]
[1]
  Seizure severity score (Average): 4.25
[2]
  Seizure severity score (Average): 0.25

## NS(=O)(=O)N[C@@H]1c2c(F)ccc(F)c2C[C@H]1F (relative stereo) [Example 15, N-[(1R*,2R*)-2,4,7-trifluoro-2,3-dihydro-1H-inden-1-yl]sulfamide]
[1]
  Seizure severity score (Average): 3
[2]
  Seizure severity score (Average): 0

## NS(=O)(=O)N[C@@H]1c2c(Cl)ccc(F)c2C[C@H]1F (relative stereo) [Example 16a, (−)-N-[(1R*,2R*)-7-chloro-2,4-difluoro-2,3-dihydro-1H-inden-1-yl]sulfamide]
[3]
  Seizure severity score (Average): 0

## NS(=O)(=O)N[C@@H]1c2c(Cl)ccc(F)c2C[C@H]1F (relative stereo) [Example 16b, (+)-N-[(1R*,2R*)-7-chloro-2,4-difluoro-2,3-dihydro-1H-inden-1-yl]sulfamide]
[1]
  Seizure severity score (Average): 3.75
[3]
  Seizure severity score (Average): 0.5

## NS(=O)(=O)N[C@@H]1c2c(Cl)cc(F)cc2C[C@H]1F (relative stereo) [Example 17, (−)-N-[(1R*,2R*)-7-chloro-2,5-difluoro-2,3-dihydro-1H-inden-1-yl]sulfamide]
[1]
  Seizure severity score (Average): 2
[2]
  Seizure severity score (Average): 0
[4]
  Seizure severity score (Average): 0

## CO[C@@H]1Cc2c(Cl)ccc(F)c2[C@H]1NS(N)(=O)=O (relative stereo) [Example 18, (+)-N-[(1R*,2R*)-4-chloro-7-fluoro-2-methoxy-2,3-dihydro-1H-inden-1-yl]sulfamide]
[1]
  Seizure severity score (Average): 2
[2]
  Seizure severity score (Average): 0

## Cc1cc(C#N)cc2c1C(NS(N)(=O)=O)C(F)(F)C2 (single isomer, unassigned) [Example 4, N-[(1S*)-5-cyano-2,2-difluoro-7-methyl-2,3-dihydro-1H-inden-1-yl]sulfamide]
[2]
  Seizure severity score (Average): 0
[4]
  Seizure severity score (Average): 0

## Cc1ccc(F)c2c1C(NS(N)(=O)=O)C(F)(F)C2 (single isomer, unassigned) [Example 13, N-[(1S*)-2,2,4-trifluoro-7-methyl-2,3-dihydro-1H-inden-1-yl]sulfamide]
[1]
  Seizure severity score (Average): 0

## NS(=O)(=O)NC1c2c(cccc2C(F)F)CC1(F)F (single isomer, unassigned) [Example 14, N-[(1S*)-7-(difluoromethyl)-2,2-difluoro-2,3-dihydro-1H-inden-1-yl]sulfamide]
[2]
  Seizure severity score (Average): 0

## N#Cc1cc(Cl)c2c(c1)CC[C@H]2NS(N)(=O)=O (single isomer, unassigned) [Example 22b, (−)-N-(7-chloro-5-cyano-2,3-dihydro-1H-inden-1-yl)sulfamide]
[1]
  Seizure severity score (Average): 3
[3]
  Seizure severity score (Average): 0

## NS(=O)(=O)N[C@H]1CCc2cccc(Cl)c21 (single isomer, unassigned) [Example 24, (+)-N-(7-chloro-2,3-dihydro-1H-inden-1-yl)sulfamide]
[1]
  Seizure severity score (Average): 3
[2]
  Seizure severity score (Average): 0

## Cc1cc(C#N)cc2c1C(NS(N)(=O)=O)CC2 (single isomer, unassigned) [Example 25a, (+)-N-(5-cyano-7-methyl-2,3-dihydro-1H-inden-1-yl)sulfamide]
[5]
  Seizure severity score (Average): 1.75
[2]
  Seizure severity score (Average): 0

## Cc1ccc(F)c2c1[C@@H](NS(N)(=O)=O)CC2 (single isomer, unassigned) [Example 28a, (+)-N-(4-fluoro-7-methyl-2,3-dihydro-1H-inden-1-yl)sulfamide]
[5]
  Seizure severity score (Average): 4
[2]
  Seizure severity score (Average): 0

## NS(=O)(=O)NC1c2c(F)c(F)cc(F)c2CC1(F)F (single isomer, unassigned; (+)) [Example 3, (+)-N-(2,2,4,6,7-pentafluoro-2,3-dihydro-1H-inden-1-yl)sulfamide]
[1]
  Seizure severity score (Average): 1.5
[2]
  Seizure severity score (Average): 0

## NS(=O)(=O)NC1c2c(F)cc(Cl)cc2CC1(F)F (single isomer, unassigned; (+)) [Example 10, (+)-N-(5-chloro-2,2,7-trifluoro-2,3-dihydro-1H-inden-1-yl)sulfamide]
[1]
  Seizure severity score (Average): 0
[2]
  Seizure severity score (Average): 0

## NS(=O)(=O)NC1CCc2c(F)ccc(Cl)c21 (single isomer, unassigned; (+)) [Example 20, (+)-N-(7-chloro-4-fluoro-2,3-dihydro-1H-inden-1-yl)sulfamide]
[6]
  Seizure severity score (Average): 3.25
[7]
  Seizure severity score (Average): 0

## Cc1cccc2c1C(NS(N)(=O)=O)CC2 (single isomer, unassigned; (+)) [Example 27, (+)-N-(7-methyl-2,3-dihydro-1H-inden-1-yl)sulfamide]
[1]
  Seizure severity score (Average): 3
[2]
  Seizure severity score (Average): 0

## NS(=O)(=O)NC1c2c(Cl)ccc(F)c2CC1(F)F (single isomer, unassigned; (-)) [Example 7, (−)-N-(7-chloro-2,2,4-trifluoro-2,3-dihydro-1H-inden-1-yl)sulfamide]
[6]
  Seizure severity score (Average): 3.5
[7]
  Seizure severity score (Average): 0.25

## NS(=O)(=O)NC1c2c(ccc(F)c2Cl)CC1(F)F (single isomer, unassigned; (-)) [Example 9, (−)-N-(7-chloro-2,2,6-trifluoro-2,3-dihydro-1H-inden-1-yl)sulfamide]
[2]
  Seizure severity score (Average): 0
[4]
  Seizure severity score (Average): 0

## NS(=O)(=O)NC1CCc2cc(Cl)cc(F)c21 (single isomer, unassigned; (-)) [Example 23, (−)-N-(5-chloro-7-fluoro-2,3-dihydro-1H-inden-1-yl)sulfamide]
[1]
  Seizure severity score (Average): 4.25
[2]
  Seizure severity score (Average): 0

## NS(=O)(=O)NC1CCc2c(Cl)ccc(F)c21 (single isomer, unassigned; (-)) [Example 31, (−)-N-(4-chloro-7-fluoro-2,3-dihydro-1H-inden-1-yl)sulfamide]
[1]
  Seizure severity score (Average): 1.5
[2]
  Seizure severity score (Average): 0

## N#Cc1cc(Cl)c2c(c1)CC[C@H]2NS(N)(=O)=O [Example 22a, (+)-N-(7-chloro-5-cyano-2,3-dihydro-1H-inden-1-yl)sulfamide]
[1]
  Seizure severity score (Average): 3
[3]
  Seizure severity score (Average): 0.25

## Cc1cc(C#N)cc2c1[C@@H](NS(N)(=O)=O)CC2 [Example 25b, (−)-N-(5-cyano-7-methyl-2,3-dihydro-1H-inden-1-yl)sulfamide]
[5]
  Seizure severity score (Average): 1
[2]
  Seizure severity score (Average): 0

## Cc1ccc(F)c2c1[C@@H](NS(N)(=O)=O)CC2 [Example 28b, (−)-N-(4-fluoro-7-methyl-2,3-dihydro-1H-inden-1-yl)sulfamide]
[5]
  Seizure severity score (Average): 3.75
[2]
  Seizure severity score (Average): 0
